Structures can show the parent of a compound that is named as a salt. Where two headings read alike, the source gives them in different places.
Test system: HIV-1 (HIVIIIB) replication in MT2 cell line
Assay: HIV-1 replication in MT2 cell line with and without 30% human serum (viral RT activity in supernatant)
Type: cell-based
Summary of the method: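 MT2 cells infected with HIV-1 IIIB at MOI 0.5 for 3 h, washed, seeded at 0.5×10^6/ml in RPMI/10% FBS with serially diluted compound, with or without 30% human serum; medium and compound refreshed on day 3. RT activity in supernatant at day 5; IC50 and IC90 derived.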

[1] = Human immunodeficiency virus 1, MT2 cells, with 30% human serum, average IC50 if tested more than once, read-out: MT2 (HIVIIIB) with HS 30% IC50 range
[2] = Human immunodeficiency virus 1, MT2 cells, without human serum, average IC50 if tested more than once, read-out: MT2 (HIVIIIB) IC50 range

## CC(C)C1=C2C3CCC4[C@@]5(C)CC[C@H](OC(=O)CC(C)(C)C(=O)O)C(C)(C)C5CC[C@@]4(C)[C@]3(C)CC[C@@]2(NC(=O)C2CC3CCC(C2)O3)CC1=O (stereo partly drawn) [19-70, 3β-O-(3′,3′-Dimethylsuccinyl)-17β-(8β-oxa-bicyclo[3.2.1]octane-3-amido)-21-oxolup-18-ene]
[1]
  IC50: < 199 nM

## CC(=O)N[C@@]12CC[C@]3(C)[C@H](CC[C@@H]4[C@@]5(C)CC[C@H](OC(=O)CC(C)(C)C(=O)O)C(C)(C)[C@@H]5CC[C@]43C)C1=C(C(C)C)C(=O)C2 [19-1, 3β-O-(3′,3′-Dimethylsuccinyl)-17β-acetylamino-21-oxolup-18-ene]
[1]
  IC50: < 199 nM
[2]
  IC50: < 199 nM

## CC(C)C1=C2C3CCC4[C@@]5(C)CC[C@H](OC(=O)CC(C)(C)C(=O)O)C(C)(C)C5CC[C@@]4(C)[C@]3(C)CC[C@@]2(NC(=O)OC2CCN(C)CC2)CC1=O (stereo partly drawn) [20-17, 3β-O-(3′,3′-Dimethylsuccinyl)-17β-(1-methylpiperidine-4-oxycarbonylamino)-21-oxolup-18-ene]
[1]
  IC50: < 199 nM

## CC(C)C1=C2C3CCC4[C@@]5(C)CC[C@H](OC(=O)CC(C)(C)C(=O)O)C(C)(C)C5CC[C@@]4(C)[C@]3(C)CC[C@@]2(NC(=O)NCc2ccccn2)CC1=O (stereo partly drawn) [17-27, 3β-O-(3′,3′-Dimethylsuccinyl)-17β-[N′-(pyridin-2-ylmethyl)ureido]-21-oxolup-18-ene]
[1]
  IC50: < 199 nM

## CC(C)C1=C2[C@H]3CC[C@@H]4[C@@]5(C)CC[C@H](OC(=O)CC(C)(C)C(=O)O)C(C)(C)[C@@H]5CC[C@@]4(C)[C@]3(C)CC[C@@]2(NC(=O)c2cnn(C)c2)CC1=O [19-35, 3β-O-(3′,3′-Dimethylsuccinyl)-17β-(1-methyl-1H-pyrazole-4-amido)-21-oxolup-18-ene]
[1]
  IC50: < 199 nM
[2]
  IC50: < 199 nM

## CC(C)C1=C2C3CCC4[C@@]5(C)CC[C@H](OC(=O)CC(C)(C)C(=O)O)C(C)(C)C5CC[C@@]4(C)[C@]3(C)CC[C@@]2(NC(=O)[C@@H]2CCCN2C(=O)OC(C)(C)C)CC1=O (stereo partly drawn) [19-57]
[1]
  IC50: < 199 nM

## CC(C)C1=C2[C@H]3CC[C@@H]4[C@@]5(C)CC[C@H](OC(=O)CC(C)(C)C(=O)O)C(C)(C)[C@@H]5CC[C@@]4(C)[C@]3(C)CC[C@@]2(NC(=O)NC2CN(C(=O)OC(C)(C)C)C2)CC1=O [17-33, 3β-O-(3′,3′-Dimethylsuccinyl)-17β-[N′-(1-tert-butyloxycarbonyl-azetidin-3-yl)-ureido]-21-oxolup-18-ene]
[1]
  IC50: < 199 nM

## CC(C)C1=C2C3CCC4[C@@]5(C)CC[C@H](OC(=O)CC(C)(C)C(=O)O)C(C)(C)C5CC[C@@]4(C)[C@]3(C)CC[C@@]2(NC(=O)c2cncnc2)CC1=O (stereo partly drawn) [19-23, 3β-O-(3′,3′-Dimethylsuccinyl)-17β-(pyrimidine-5-amido)-21-oxolup-18-ene]
[1]
  IC50: < 199 nM
[2]
  IC50: < 199 nM

## Cc1noc(C(=O)N[C@@]23CC[C@]4(C)C(CCC5[C@@]6(C)CC[C@H](OC(=O)CC(C)(C)C(=O)O)C(C)(C)C6CC[C@]54C)C2=C(C(C)C)C(=O)C3)n1 (stereo partly drawn) [19-67, 3β-O-(3′,3′-Dimethylsuccinyl)-17β-(3-methyl-[1,2,4]oxadiazole-5-amido)-21-oxolup-18-ene]
[1]
  IC50: < 199 nM

## CC(C)C1=C2[C@H]3CC[C@@H]4[C@@]5(C)CC[C@H](OC(=O)CC(C)(C)C(=O)O)C(C)(C)[C@@H]5CC[C@@]4(C)[C@]3(C)CC[C@@]2(NC(=O)NC2CNC2)CC1=O [17-35]
[1]
  IC50: 200 to 999 nM

## CC(C)C1=C2C3CCC4[C@@]5(C)CC[C@H](OC(=O)CC(C)(C)C(=O)O)C(C)(C)C5CC[C@@]4(C)[C@]3(C)CC[C@@]2(NC(=O)NC(C)(C)C(F)(F)F)CC1=O (stereo partly drawn) [17-56, 3β-O-(3′,3′-Dimethylsuccinyl)-17β-[N′-(2,2,2-trifluoro-1,1-dimethyl-ethyl)ureido]-21-oxolup-18-ene]
[1]
  IC50: < 199 nM

## CC(C)C1=C2[C@H]3CC[C@@H]4[C@@]5(C)CC[C@H](OC(=O)CC(C)(C)C(=O)O)C(C)(C)[C@@H]5CC[C@@]4(C)[C@]3(C)CC[C@@]2(NC(=O)Nc2cncnc2)CC1=O [17-44, 3β-O-(3′,3′-Dimethylsuccinyl)-17β-(N′-pyrimidin-5-yl-ureido)-21-oxolup-18-ene]
[1]
  IC50: < 199 nM

## CC(C)OC(=O)N[C@@]12CC[C@]3(C)[C@H](CC[C@@H]4[C@@]5(C)CC[C@H](OC(=O)CC(C)(C)C(=O)O)C(C)(C)[C@@H]5CC[C@]43C)C1=C(C(C)C)C(=O)C2 [20-2]
[1]
  IC50: < 199 nM
[2]
  IC50: < 199 nM

## CC(C)C1=C2C3CCC4[C@@]5(C)CC[C@H](OC(=O)CC(C)(C)C(=O)O)C(C)(C)C5CC[C@@]4(C)[C@]3(C)CC[C@@]2(NC(=O)NCc2cncnc2)CC1=O (stereo partly drawn) [17-68, 3β-O-(3′,3′-Dimethylsuccinyl)-17β-[N′-(pyrimidin-5-ylmethyl)ureido]-21-oxolup-18-ene]
[1]
  IC50: < 199 nM

## CC(C)C1=C2C3CCC4[C@@]5(C)CC[C@H](OC(=O)CC(C)(C)C(=O)O)C(C)(C)C5CC[C@@]4(C)[C@]3(C)CC[C@@]2(NC(=O)C2CCCCC2)CC1=O (stereo partly drawn) [19-33, 3β-O-(3′,3′-Dimethylsuccinyl)-17β-cyclohexylamido-21-oxolup-18-ene]
[1]
  IC50: < 199 nM
[2]
  IC50: < 199 nM

## CC(C)C1=C2[C@H]3CC[C@@H]4[C@@]5(C)CC[C@H](OC(=O)CC(C)(C)C(=O)O)C(C)(C)[C@@H]5CC[C@@]4(C)[C@]3(C)CC[C@@]2(N)CC1=O [15-1, 3β-O-(3′,3′-Dimethylsuccinyl)-17β-amino-21-oxolup-18-ene hydrochloride]
[1]
  IC50: < 199 nM
[2]
  IC50: < 199 nM

## CC(C)C1=C2C3CCC4[C@@]5(C)CC[C@H](OC(=O)CC(C)(C)C(=O)O)C(C)(C)C5CC[C@@]4(C)[C@]3(C)CC[C@@]2(NC(=O)N2CC[C@H](NC(=O)OC(C)(C)C)C2)CC1=O (stereo partly drawn) [17-41, 3β-O-(3′,3′-Dimethylsuccinyl)-17β-[((S)-3-tert-butyloxycarbonylamino-pyrrolidine-1-carbonyl)-amino]-21-oxolup-18-ene]
[1]
  IC50: < 199 nM

## CC(C)C1=C2[C@H]3CC[C@@H]4[C@@]5(C)CC[C@H](OC(=O)CC(C)(C)C(=O)O)C(C)(C)[C@@H]5CC[C@@]4(C)[C@]3(C)CC[C@@]2(NC(=O)NCc2ccnn2C)CC1=O [17-76, 3β-O-(3′,3′-Dimethylsuccinyl)-17β-[N′-(2-methyl-2H-pyrazol-3-yl-methyl)-ureido]-21-oxolup-18-ene]
[1]
  IC50: < 199 nM

## CCc1nnc(C(=O)N[C@@]23CC[C@]4(C)C(CCC5[C@@]6(C)CC[C@H](OC(=O)CC(C)(C)C(=O)O)C(C)(C)C6CC[C@]54C)C2=C(C(C)C)C(=O)C3)o1 (stereo partly drawn) [19-79, 3β-O-(3′,3′-Dimethylsuccinyl)-17β-(5-ethyl-[1,3,4]-oxadiazole-2-amido)-21-oxolup-18-ene]
[1]
  IC50: < 199 nM

## CC(C)C1=C2C3CCC4[C@@]5(C)CC[C@H](OC(=O)CC(C)(C)C(=O)O)C(C)(C)C5CC[C@@]4(C)[C@]3(C)CC[C@@]2(NC(=O)[C@@H]2CCCN2C(C)C)CC1=O (stereo partly drawn) [19-56]
[1]
  IC50: < 199 nM

## CC(C)C1=C2[C@H]3CC[C@@H]4[C@@]5(C)CC[C@H](OC(=O)CC(C)(C)C(=O)O)C(C)(C)[C@@H]5CC[C@@]4(C)[C@]3(C)CC[C@@]2(NC(=O)Nc2ccccc2)CC1=O [17-3, 3β-O-(3′,3′-Dimethylsuccinyl)-17β-[N′-(phenyl)ureido]-21-oxolup-18-ene]
[1]
  IC50: < 199 nM
[2]
  IC50: < 199 nM

## CC(C)C1=C2C3CCC4[C@@]5(C)CC[C@H](OC(=O)CC(C)(C)C(=O)O)C(C)(C)C5CC[C@@]4(C)[C@]3(C)CC[C@@]2(NC(=O)C(=O)N(C)C)CC1=O (stereo partly drawn) [19-74, 3β-O-(3′,3′-Dimethylsuccinyl)-17β-(N′,N′-dimethyl-oxalamido)-21-oxolup-18-ene]
[1]
  IC50: < 199 nM

## CC(C)C1=C2C3CCC4[C@@]5(C)CC[C@H](OC(=O)CC(C)(C)C(=O)O)C(C)(C)C5CC[C@@]4(C)[C@]3(C)CC[C@@]2(NC(=O)N2CCC(N)CC2)CC1=O (stereo partly drawn) [17-23, 3β-O-(3′,3′-Dimethylsuccinyl)-17β-[(4-amino-piperidine-1-carbonyl)-amino]-21-oxolup-18-ene trifluoroacetate]
read-out: MT2 (HIVIIIB) with HS 30% IC50 range, MT2 cells, with 30% human serum, average IC50 if tested more than once
  IC50: 200 to 999 nM

## CC(C)C1=C2[C@H]3CC[C@@H]4[C@@]5(C)CC[C@H](OC(=O)CC(C)(C)C(=O)O)C(C)(C)[C@@H]5CC[C@@]4(C)[C@]3(C)CC[C@@]2(NC(=O)c2ccc(F)cc2)CC1=O [19-13, 3β-O-(3′,3′-Dimethylsuccinyl)-17β-(4-fluorobenzamido)-21-oxolup-18-ene]
[1]
  IC50: < 199 nM
[2]
  IC50: < 199 nM

## CC(C)C1=C2[C@H]3CC[C@@H]4[C@@]5(C)CC[C@H](OC(=O)CC(C)(C)C(=O)O)C(C)(C)[C@@H]5CC[C@@]4(C)[C@]3(C)CC[C@@]2(NC(=O)CN(C)C)CC1=O [19-53, 3β-O-(3′,3′-Dimethylsuccinyl)-17β-(2-dimethylamino-acetamido)-21-oxolup-18-ene]
[1]
  IC50: < 199 nM

## CC(C)C1=C2[C@H]3CC[C@@H]4[C@@]5(C)CC[C@H](OC(=O)CC(C)(C)C(=O)O)C(C)(C)[C@@H]5CC[C@@]4(C)[C@]3(C)CC[C@@]2(NC(=O)C2CCNCC2)CC1=O [19-6, 3β-O-(3′,3′-Dimethylsuccinyl)-17β-(piperidine-4-amido)-21-oxolup-18-ene]
[1]
  IC50: > 1000 nM
[2]
  IC50: < 199 nM

## CC(=O)N1CCC(C(=O)N[C@@]23CC[C@]4(C)[C@H](CC[C@@H]5[C@@]6(C)CC[C@H](OC(=O)CC(C)(C)C(=O)O)C(C)(C)[C@@H]6CC[C@]54C)C2=C(C(C)C)C(=O)C3)CC1 [19-7, 3β-O-(3′,3′-Dimethylsuccinyl)-17β-(1-acetylpiperidine-4-amido)-21-oxolup-18-ene]
[1]
  IC50: < 199 nM
[2]
  IC50: < 199 nM

## CC(C)C1=C2[C@H]3CC[C@@H]4[C@@]5(C)CC[C@H](OC(=O)CC(C)(C)C(=O)O)C(C)(C)[C@@H]5CC[C@@]4(C)[C@]3(C)CC[C@@]2(NC(=O)c2cccnc2)CC1=O [19-8, 3β-O-(3′,3′-Dimethylsuccinyl)-17β-(pyridin-3-yl)amido-21-oxolup-18-ene]
[1]
  IC50: < 199 nM
[2]
  IC50: < 199 nM

— US8269026B2, “Lupane derivatives useful for treating HIV” (priority 2008, dated 2012)
